In ChEMBL document CHEMBL1126241, “Synthesis, characterization, and Ca2+ antagonistic activity of diltiazem metabolites” (J Med Chem, 1992):
pIC50: −log10 of the molar value.

These compounds were tested on Cricetinae gen. sp. (assay: Concentration (10 e-6 M) required to block [Ca2+]-induced contraction of K+-depolarized hamster aorta).
Format: functional

pIC50 | SMILES
4.39 | CC(=O)OC1C(=O)N(CCN(C)C)c2ccccc2SC1c1ccc(O)cc1 (configuration not stated)
4.34 | CN(C)CCN1C(=O)C(O)C(c2ccc(O)cc2)Sc2ccccc21 (configuration not stated)
5.49 | CNCCN1C(=O)C(OC(C)=O)C(c2ccc(OC)cc2)Sc2ccccc21 (configuration not stated)
3.90 | CNCCN1C(=O)C(O)C(c2ccc(O)cc2)Sc2ccccc21 (configuration not stated)
4.69 | CNCCN1C(=O)C(O)C(c2ccc(OC)cc2)Sc2ccccc21 (configuration not stated)
3.95 | CNCCN1C(=O)C(OC(C)=O)C(c2ccc(O)cc2)Sc2ccccc21 (configuration not stated)
6.01 | COc1ccc([C@@H]2Sc3ccccc3N(CCN(C)C)C(=O)[C@@H]2OC(C)=O)cc1 [DILTIAZEM]
